Measured values reported in patent publication US12472261B2, “Conjugated inhibitors of DNA damage response” (ProLynx LLC, priority 2019, dated 2025).

Key:
DLD-1 BRCA2^wt/wt = test: Efficacy in murine DLD-1 BRCA2^wt/wt xenografts (Example 10); settings: QD oral
KT-10 tumors = settings: KT-10, 0.1 mg/kg TLZ daily dosing; reference (26); cited from earlier work
[1] = tested on: BRCA1-deficient MX-1 tumors; assay type: in vivo
[2] = tested on: MX-1 human triple-negative breast carcinoma cell line; test: Efficacy of PEG-talazoparib conjugates in murine MX-1 xenografts (Example 9); assay type: in vivo, mice; settings: MX-1 tumors
Experimental: The MX-1 human triple-negative breast carcinoma cell line was obtained from Charles River Labs (Frederick, Md).
Tumor xenografts were established by subcutaneous injection with MX-1 tumor cells (2×10^6 cells in 100 μl of serum free medium mixed 1:1 with Matrigel) into the right flank of female NCr nude mice. When tumor xenografts reached 1000-1500 mm^3 in donor mice, they were resected, divided into even-size fragments (approximately 2.5×2.5 mm), embedded in Matrigel and re-implanted via subcutaneous trocar implantation in receiver mice.
Solutions of talazoparib (50 μM) were prepared as by adding a solution of talazoparib in DMSO (55 mM, 454 μL) to the oral dosing buffer consisting of 10% dimethylacetamide, 6% solutol, and 84% PBS. Talazaparib content was determined by ε310nm=9872 M^−1cm^−1 in 10% dimethylacetamide, 6% solutol, and 84% PBS Solutions were delivered p.o. at 8.5-19 mL/kg to deliver 0.4 to 0.9 μmol/kg talazoparib. Solutions of PEG-talazoparib (Example 1, R^1=MeSO2, R^7=MeO(CH2)2) containing up to 8 mM talazoparib (2 mM PEG˜[talazoparib]4) were prepared in isotonic acetate (pH 5), sterile filtered through a 0.2 μM syringe filter, and TLZ content was determined by ε310nm=9872 M^−1cm^−1 in 10% dimethylacetamide, 6% solutol, and 84% PBS. Doses were delivered IP at ˜15 mL/kg mL/kg to deliver 15-120 μmol drug/kg.
Mice bearing MX-1 tumors were dosed when tumors reached ˜100-300 mm^3 in size. Dosing solutions were administered as indicated above. Tumor volumes (caliper measurement: 0.5×(length×width)) and body weights were measured twice weekly. […] Mice bearing large tumors were dosed when tumors reached 1000-3000 mm^3.
Progressive disease (PD) was classified as PD1 or PD2 based on the tumor growth delay (TGD) values calculated as the number of days to event. For each mouse, TGD was calculated by dividing the time to event by the median time to event in the control group. […] Median times to event were estimated based on the Kaplan-Meier event-free survival distribution.

DLD-1 BRCA2^−/− = settings: daily TLZ×21 days

Cn1ncnc1[C@H]1c2n[nH]c(=O)c3cc(F)cc(c23)N[C@@H]1c1ccc(F)cc1 [TLZ, talazoparib]
median EFS of treated animals vs controls (DLD-1 BRCA2^wt/wt): no increase | tumor response (DLD-1 BRCA2^wt/wt): resistant | response of KT-10 to daily TLZ (KT-10 tumors): maintained CRs over 12 wks | duration of growth suppression ([1]; MX-1, daily oral 0.4 μmol/kg (0.15 mg/kg)): ~3 wks | median EFS ([1]; MX-1, daily oral 0.4 μmol/kg, event = doubling of initial tumor volume): 35 days | MCR (number of mice, Houghton analysis) ([2]; dose 0.4 μmol/kg): 1 | PD2 (number of mice, Houghton analysis) ([2]; dose 0.4 μmol/kg): 4 | CR (number of mice, Houghton analysis) ([2]; dose 0.7 μmol/kg): 2 | MCR (number of mice, Houghton analysis) ([2]; dose 0.7 μmol/kg): 1 | PR (number of mice, Houghton analysis) ([2]; dose 0.7 μmol/kg): 2 | increase in median event free survival (DLD-1 BRCA2^−/−): 11 fold
